This is an account of results in PubChem BioAssay (NCI).

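Cells were grown in 96-well plates and exposed to each compound for 48 hours at five concentrations; endpoints were interpolated linearly between bracketing concentrations, or set to the highest concentration if not reached. At the GI50, growth is halved. Definition used: TGI = concentration required for complete inhibition of growth.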

Some test systems named below: KM20L2 colon; LXFL 529 NSCLC; SNB-78 CNS; XF 498 CNS; RXF-631 renal; M19-MEL melanoma; DLD-1 colon; DMS 114 small cell lung; HOP-18 NSCLC; SN12K1 renal; P388/ADR leukemia.
Assay in all cases: NCI tumour cell line growth inhibition, 48 h

For `Cc1ccc(N=C2N=C(N3CC(C)OC(C)C3)c3ccccc32)cc1` (stereo not drawn), the TGI was > 100 µM in the assay on KM20L2 colon; 57.6 µM in the assay on LXFL 529 NSCLC; > 100 µM with SNB-78 CNS; 64.5 µM with XF 498 CNS; > 100 µM in the assay on RXF-631 renal; > 100 µM in the assay with M19-MEL melanoma. The TGI in the assay on DLD-1 colon was > 100 µM.
In the case of `Cc1ccc(/C=C/C(=O)c2sc(-n3nc(-c4ccccc4)cc3-c3ccccc3)nc2C)cc1`, the TGI in the assay with DMS 114 small cell lung, in the assay on KM20L2 colon, with SNB-78 CNS, in the assay with M19-MEL melanoma, in the assay on DLD-1 colon and in the assay on HOP-18 NSCLC was > 100 µM throughout.
As for `O=C1C=C2CCCC2C(C(=O)O)(C(=O)O)C1` (stereo not drawn), the TGI with DMS 114 small cell lung, with LXFL 529 NSCLC, in the assay on SNB-78 CNS, in the assay on XF 498 CNS, in the assay with RXF-631 renal and in the assay with M19-MEL melanoma was > 100 µM throughout. Moreover, in the assay on DLD-1 colon, the TGI is > 100 µM.
Regarding `O=C(N=c1nc(NC(=O)c2ccccc2)ss1)c1ccccc1`, the TGI is 90.3 µM in the assay with DMS 114 small cell lung, > 100 µM in the assay with KM20L2 colon, > 100 µM in the assay with SNB-78 CNS and > 100 µM in the assay on M19-MEL melanoma.
With `COc1ccc(O)cc1C(O)c1ccccc1` (stereo not drawn), the TGI in the assay on DMS 114 small cell lung, in the assay with KM20L2 colon, with LXFL 529 NSCLC, in the assay on SNB-78 CNS, in the assay with XF 498 CNS and in the assay with M19-MEL melanoma was > 100 µM throughout. Besides, the TGI in the assay on DLD-1 colon and with HOP-18 NSCLC was > 100 µM each time.
In the case of `O=C(N/C(=C\c1ccccc1O)c1nc2ccccc2[nH]1)c1ccccc1`, the TGI in the assay on DMS 114 small cell lung, with KM20L2 colon, in the assay on LXFL 529 NSCLC, with SNB-78 CNS, with XF 498 CNS and in the assay on M19-MEL melanoma was > 100 µM each time. In the assay with HOP-18 NSCLC, the TGI is > 100 µM.
For the compound `O=C(CC1C(=O)Nc2ccccc2S1(=O)=O)Nc1ccc(Cl)cc1` (stereo not drawn), the TGI is 55.7 µM in the assay with DMS 114 small cell lung; > 100 µM in the assay with KM20L2 colon; 78.2 µM with LXFL 529 NSCLC; 93.8 µM in the assay with SNB-78 CNS; 30.5 µM with XF 498 CNS; > 100 µM with RXF-631 renal. For the same compound, the results for the TGI in the assay on M19-MEL melanoma and in the assay with DLD-1 colon were 61.9 µM and > 100 µM, respectively.
Turning to `COc1c(I)c(OC)c2c(c1I)O[C@@H]1OCC[C@H]21`, the TGI was 70.5 µM in the assay with DMS 114 small cell lung; > 100 µM in the assay on KM20L2 colon; 63.7 µM in the assay on LXFL 529 NSCLC; > 100 µM in the assay with SNB-78 CNS; 66.4 µM with XF 498 CNS; > 100 µM in the assay with RXF-631 renal. Moreover, the values for the TGI in the assay on M19-MEL melanoma, in the assay with DLD-1 colon and in the assay with HOP-18 NSCLC were 57.7 µM, > 100 µM and 81 µM, respectively.
For `N#C/C(=C1\OC(=N)C(c2ccccc2)C1=O)c1ccccc1` (stereo not drawn), the TGI is > 82.2 µM in the assay with DMS 114 small cell lung; > 100 µM with KM20L2 colon; 36.3 µM in the assay on LXFL 529 NSCLC; > 100 µM in the assay on SNB-78 CNS; 46.2 µM with XF 498 CNS; 56.5 µM in the assay with M19-MEL melanoma. The TGI in the assay with DLD-1 colon was 39.1 µM; in the assay on HOP-18 NSCLC, 92.3 µM.
For the compound `C[N+](C)(C)c1cc[c]([Sn]([c]2ccc([N+](C)(C)C)cc2)([c]2ccc([N+](C)(C)C)cc2)[c]2ccc([N+](C)(C)C)cc2)cc1`, the GI50 in the assay on DMS 114 small cell lung, with KM20L2 colon, in the assay on LXFL 529 NSCLC, in the assay on XF 498 CNS, in the assay with RXF-631 renal and with M19-MEL melanoma was > 100 µM in each case. Also, the GI50 in the assay on DLD-1 colon and in the assay with HOP-18 NSCLC was > 100 µM in each case. For the same compound, the TGI with DMS 114 small cell lung, in the assay with KM20L2 colon, in the assay with LXFL 529 NSCLC, in the assay on XF 498 CNS, in the assay with RXF-631 renal and in the assay with M19-MEL melanoma was > 100 µM in each case. The TGI in the assay with DLD-1 colon and in the assay with HOP-18 NSCLC was > 100 µM each time.
Turning to `O=C(CCC(=O)Nc1cccc(C(F)(F)F)c1)CC(=O)c1ccc2ccccc2c1`, the TGI in the assay on DMS 114 small cell lung, in the assay on KM20L2 colon, in the assay on LXFL 529 NSCLC, in the assay on SNB-78 CNS, in the assay with XF 498 CNS and in the assay on RXF-631 renal was > 100 µM throughout. Moreover, the TGI in the assay on M19-MEL melanoma, in the assay with DLD-1 colon and with HOP-18 NSCLC was > 100 µM each time.
On to `CCOC(=O)c1[nH]c2cc(OC)c(OC)cc2c1CN(C)C`, for which the TGI in the assay with DMS 114 small cell lung, in the assay with KM20L2 colon, with SNB-78 CNS and in the assay with DLD-1 colon was > 100 µM in each case.
As to `CCc1cc2c(O)c(c1)Cc1cc(CC)cc(c1O)Cc1cc(CC)cc(c1O)Cc1cc(CC)cc(c1O)Cc1cc(CC)cc(c1O)Cc1cc(CC)cc(c1O)Cc1cc(CC)cc(c1O)C2`, the TGI in the assay on DMS 114 small cell lung, in the assay on KM20L2 colon, with LXFL 529 NSCLC, in the assay on SNB-78 CNS, in the assay on XF 498 CNS and in the assay on M19-MEL melanoma was > 100 µM each time. Moreover, the TGI in the assay with DLD-1 colon is > 100 µM.
Regarding `C/C=C/C(=O)[O-].C/C=C/C(=O)[O-].N.N.N.N.[Co+3].[O-][Cl+3]([O-])([O-])[O-]`, the GI50 in the assay on KM20L2 colon, in the assay with LXFL 529 NSCLC, with SNB-78 CNS and in the assay on DLD-1 colon was > 100 µM each time. In addition, the TGI in the assay with KM20L2 colon, in the assay with LXFL 529 NSCLC, in the assay on SNB-78 CNS and in the assay with DLD-1 colon was > 100 µM throughout.
Turning to `CCCCNC(=S)OCCC(C)CCCC(C)C` (stereo not drawn), the TGI in the assay on DMS 114 small cell lung, in the assay with KM20L2 colon, in the assay with LXFL 529 NSCLC, with SNB-78 CNS, in the assay with XF 498 CNS and in the assay on M19-MEL melanoma was > 100 µM each time. Also, the TGI with DLD-1 colon and in the assay on HOP-18 NSCLC was > 100 µM throughout.
Consider `CC1=CP(=O)(c2ccccc2)C=C(C)C1=C(Cl)Cl` (stereo not drawn), for which the TGI in the assay on DMS 114 small cell lung worked out at 28.9 µM; with KM20L2 colon, 4.61 µM; in the assay with LXFL 529 NSCLC it was 11.3 µM; with SNB-78 CNS, 9.03 µM; in the assay with XF 498 CNS, 34.8 µM; in the assay on M19-MEL melanoma, 30.3 µM. Besides, the TGI in the assay with DLD-1 colon is 27.1 µM; with HOP-18 NSCLC, 45.2 µM.
As to `CC1C=CC(C(N)C(=O)O)O1` (stereo not drawn), the TGI with DMS 114 small cell lung, with KM20L2 colon, with LXFL 529 NSCLC, in the assay on SNB-78 CNS, in the assay on XF 498 CNS and with M19-MEL melanoma was > 100 µM each time. Also, the TGI with DLD-1 colon is > 100 µM.
Regarding `CCOC(=N)CC(=O)Nc1ccccc1`, the TGI was > 46.4 µM in the assay on DMS 114 small cell lung; > 100 µM in the assay with KM20L2 colon; > 46.4 µM with LXFL 529 NSCLC; > 46.4 µM in the assay with SNB-78 CNS; > 67 µM in the assay on XF 498 CNS; > 46.4 µM in the assay on M19-MEL melanoma. For the same compound, the TGI with DLD-1 colon is > 46.4 µM; in the assay on HOP-18 NSCLC it was > 31.6 µM.
In the case of `COc1cc(/C=C(\NC(=O)c2ccccc2)c2nc3ncncc3[nH]2)cc(OC)c1OC`, the TGI with KM20L2 colon, in the assay with LXFL 529 NSCLC, in the assay on SNB-78 CNS, in the assay on XF 498 CNS, with RXF-631 renal and with M19-MEL melanoma was > 100 µM throughout. In the assay on DLD-1 colon, the TGI is > 100 µM.
Regarding `CC(C)COC1Sc2ccccc2S1`, the TGI in the assay with DMS 114 small cell lung came to 39.1 µM; in the assay on KM20L2 colon, 36.2 µM; in the assay on LXFL 529 NSCLC, 49.3 µM; with SNB-78 CNS, 65.1 µM; with DLD-1 colon, 35.1 µM; in the assay with HOP-18 NSCLC it was 30.2 µM.
Consider `O=C1NC2(CCCCC2)C(=O)N1CCN(CCCl)CCCl`, for which the TGI with DMS 114 small cell lung is 248 µM; in the assay with KM20L2 colon, > 194 µM; in the assay with SN12K1 renal, > 250 µM; with SNB-78 CNS, > 245 µM; in the assay with XF 498 CNS it was 39.6 µM; in the assay with M19-MEL melanoma, > 250 µM. For the same compound, the values for the TGI in the assay on DLD-1 colon, in the assay on HOP-18 NSCLC and in the assay on P388/ADR leukemia were > 250 µM, > 250 µM and 234 µM, respectively.
As for `COc1ccc(/C=C/C(=O)c2c(-c3ccccc3)nn(C)c(=O)c2N2CCOCC2)cc1`, the TGI in the assay with DMS 114 small cell lung was > 100 µM; in the assay with KM20L2 colon, > 100 µM; with LXFL 529 NSCLC, > 100 µM; with XF 498 CNS, 83.9 µM; with RXF-631 renal, > 100 µM; in the assay on M19-MEL melanoma, > 100 µM. For the same compound, the TGI in the assay with DLD-1 colon and in the assay with HOP-18 NSCLC was > 100 µM throughout.
Turning to `Nc1nc2c(-c3ccc([N+](=O)[O-])cc3)nnn2c2ccccc12`, the TGI in the assay with LXFL 529 NSCLC, with SNB-78 CNS, with XF 498 CNS, in the assay with M19-MEL melanoma, in the assay with DLD-1 colon and in the assay on HOP-18 NSCLC was > 100 µM throughout.
`c1ccc2c(c1)Cc1c(Cc3csc4ccccc34)ccc3cccc-2c13`: the TGI in the assay with DMS 114 small cell lung, in the assay on KM20L2 colon, in the assay with LXFL 529 NSCLC, in the assay with SNB-78 CNS, in the assay with XF 498 CNS and in the assay on RXF-631 renal was > 100 µM each time. Further, the TGI in the assay on M19-MEL melanoma and with DLD-1 colon was > 100 µM in each case.
